According to patent US20050239873A1 (priority 1999, published 2005):
Where “and” joins values, the source holds several entries; their conditions need not be identical. Equal entries are not always repeated.

Assays:
RPMI-8226 cells = test: Metabolic studies: glucose depletion from media and intracellular pH; assay type: cell-based, human
Experimental: (§1) Cell survival was assayed by exclusion of propidium iodide (PI; 10 μg/ml) by unfixed cells. Annexin V-FITC (Pharmingen) or 3, 3′-dihexyloxacarbocyanine iodide (DiOC6(3); Molecular Probes) staining was analyzed together with PI to discriminate early apoptotic cells. Apoptotic cells were also measured as sub-G1 events among ethanol-fixed cells stained with 10 μg/ml PI. All cell samples were analyzed using a benchtop FACSCalibur™ (Becton Dickinson, San Jose, Calif.). Flow data were analyzed using MultiCycle AV software (Phoenix Flow Systems). For intracellular pH measurements, cell pellets were washed once and resuspended in 2 ml of HEPES-buffered medium (no phenol red and no serum). Carboxy-SNARF-1-AM (Molecular Probes, 1 mM stock in DMSO, stored at −20° C.) was added to a final concentration of 10 μM, and the cells were incubated for 30 min at 37° C. Following incubation with SNARF, cells were sedimented and the pellets were held on ice. Immediately before analysis, pellets were resuspended in […] (HBSS; experimental buffer) or high-[K+] buffer containing nigericin (calibration samples).
The analysis by flow cytometry (Becton Dickinson FACScan™) was done with excitation at 488 nm, and emission at 585 and 640 nm (corresponding to the H^+-bound and—free forms of carboxy-SNARF-1-AM, respectively). […]

[1] = Pharmacokinetic evaluation in male CD2F1 mice; assay type: in vivo, mouse
Experimental: To determine the pharmacokinetics of 2-OMe antimycin A1 in male CD2F1 mice, groups of three were dosed either intravenously (tail vein) or intraperitoneally with 2-OMe antimycin A1 (20 mg/kg) in a vehicle of Cremaphor (5%) and ethanol (5%) in 0.9% saline. For both dosing routes, the volume administered was 5 ml/kg body weight. At various times, samples were collected by cardiac puncture into tubes containing NaF/EDTA (dry powders).
Pharmacokinetic values were derived with WinNonlin® software (Mountain View, Calif.).

TABX1A cells = test: Intracellular ATP, luciferase-luciferin assay; assay type: cell-based, murine; details: 2 μg/ml plus fructose 50 mM
Experimental: (§2) Fructose is a substrate that provides ATP production through the glycolytic pathway. After a 30-60 minute incubation, cells were harvested and intracellular ATP concentrations were determined by an ATP-dependent luciferase-luciferin assay (Sigma, St. Louis, Mo.). The ATP concentrations in DMSO-treated cells were taken as 100%. In parallel experiments, cell viability was determined after six hours.

TABX2S cells = test: Intracellular ATP, luciferase-luciferin assay; assay type: cell-based, murine; details: 2 μg/ml plus fructose 50 mM
Experimental: as §2

[2] = tested on: NB4, an acute promyelocytic cell line; test: Propidium iodide exclusion cytotoxicity; assay type: cell-based, human
Experimental: as §1

[3] = tested on: leukemia and lymphoma cell lines (DHL4, Daudi, Ramos, Molt4 and Jurkat); test: Propidium iodide exclusion cytotoxicity; assay type: cell-based, human; details: 5 to about 20 μg/ml
Experimental: as §1

[4] = tested on: myeloid leukemia cell lines; test: Propidium iodide exclusion cytotoxicity; assay type: cell-based, human; details: 20 μg/ml, even after 48 h; seven or eight cell lines
Experimental: as §1

S9 metabolism = assay type: in vitro ADME; details: male, hepatic S9 fraction, pH 7.4; for half-life at 500 ng/ml: 37° C.
Source text: All chemicals and solvents used for sample preparation and HPLC analysis were analytical grade. Acetonitrile, methanol, and phosphoric acid were purchased from Fisher Scientific (Atlanta, Ga.). Hepatic S9 fractions from male CD2F1 mice, male Sprague Dawley rats, male dogs, and male humans were purchased from In Vitro Technologies (Boston, Mass.). The National Cancer Institute provided samples of the test compounds and male CD2F1 mice. Fischer 344 rats with implanted jugular cannulas were obtained from Charles River Laboratories (Cambridge, Mass.). All animal use and care procedures were approved by the Institutional Committee on Animal Use and Care at the University of Alabama at Birmingham and conformed to the guidelines found in Guide for the Care and Use of Laboratory Animals, National Academy Press, 1996.
To evaluate metabolism of the test compounds by S9 fractions from various species, reaction systems maintained at 37° C. contained 2-OMe-A3 (500 ng/ml) and S9 (1 mg protein/ml) in 100 mM Tris buffer (pH 7.4). At selected times, triplicate portions of the mixtures were removed and processed for analysis, as described above.

## 2-methoxy antimycin A [2-OMeA]
RPMI-8226 cells
  glycolysis (depletion of glucose from culture media, reduction in intracellular pH): stimulated glycolysis

## CCCCCC[C@H]1C(=O)O[C@H](C)[C@H](NC(=O)c2cccc(NC=O)c2OC)C(=O)O[C@@H](C)[C@@H]1OC(=O)CC(C)C [2-OMeA1, 2-methoxy antimycin A1]
[1]; Intraperitoneal dose 20 mg/kg
  AUC: 2410 ng·h/mL
  Cmax: 483 ng/mL
  MRT: 474 min
  T1/2: 183 min
[1]; Intravenous dose 20 mg/kg
  AUC: 3720 ng·h/mL
  Cmax: 8000 ng/mL
  MRT: 27.6 min
[1]; Intravenous dose 20 mg/kg, 20 mg/kg
  T1/2: 19 min and 19.2 min
[1]; intraperitoneal 20 mg/kg
  plasma concentration at 24 hr after dosing: 18 ng/mL
  time of maximum plasma level: 30 min
[1]; intravenous 20 mg/kg
  plasma concentration at 30 min after dosing: 1040 ng/mL
  plasma concentration at 30 min as share of that at 5 min: about 15%
  plasma concentration at 24 hr after dosing: 15 ng/mL

## antimycin A
TABX1A cells
  ATP level, of control: approximately 60%
TABX2S cells
  ATP level, of control: approximately 60%
[2]
  sensitivity (PI exclusion): modestly antimycin-sensitive
[3]
  sensitivity (PI exclusion): sensitive
[4]
  sensitivity (PI exclusion): resistant

## CCCC[C@H]1C(=O)OC(C)[C@H](NC(=O)c2cccc(NC=O)c2OC)C(=O)O[C@@H](C)C1OC(=O)CC(C)C (stereo partly shown) [2-OMeA3, Antimycin A3 methyl ether]
S9 metabolism; CD2F1, mouse
  half-life at 2000 ng/ml: > 5 min
  half-life at 500 ng/ml: > 5 min
S9 metabolism; Sprague Dawley, rat
  half-life at 2000 ng/ml: > 5 min
  half-life at 500 ng/ml: > 5 min
S9 metabolism; dog
  half-life at 2000 ng/ml: > 5 min
  half-life at 500 ng/ml: > 5 min
